Results from ChEMBL document CHEMBL1150845, “Two new constituents of Isodon excisus and their evaluation in an apoptosis inhibition assay” (J Nat Prod, 2001).
In brackets after ≈: the same amount, converted by molar mass.

Tested on: U-937
Assay: Inhibition of etoposide-induced apoptosis in human U937 cells assessed as inhibition of caspase 3 induction after 7 hrs
Format: functional, cell-based
Conditions: U-937, 7 h

| IC50 [µg/mL] | SMILES |
| --- | --- |
| 52.4 (≈ 140 µM) | COC(=O)C[C@H](OC(=O)/C=C/c1ccc(O)c(O)c1)c1ccc(O)c(O)c1 |
| 10.2 (≈ 29.7 µM) | COc1cc(/C=C/C(=O)NC[C@@H](OC)c2ccc(O)cc2)ccc1O |

| SMILES | IC50 [µg/mL] |
| --- | --- |
| S=C(S)N1CCCC1 [PYRROLIDINE DITHIOCARBAMATE] | 8.3 (≈ 56.4 µM) |
